Source: patent publication US20210353784A1, “DETECTING AND TREATING CANCERS USING CELL PENETRANT MTP53-OLIGOMERIZATION-DOMAIN PEPTIDE” (priority 2020, published 2021)
Where two headings read alike, the source gives them in different places.

Legend:
mtp53 R273H = mtp53 R273H (Homo sapiens, UniProt P04637, R273H); assay: Co-immunoprecipitation assay with purified mtp53 R273H; format: binding; settings: anti-p53 antibody sample; molar ratio 1:1; not by normal IgG
Protocol: Anti-p53 DO1 antibody-coupled magnetic beads were used to pull down Cy5p53Tet/mtp53 complex, and normal mouse IgG-coupled magnetic beads were used as a control.
To experimentally determine if Cy5p53Tet binds to mtp53 R273H, a co-immunoprecipitation assay was performed using purified mtp53 mixed with Cy5p53Tet in a molar ratio of 1:1 (FIG. 3C). The co-immunoprecipitation was carried out using anti-p53 antibody or nonspecific IgG.
Co-immunoprecipitation Assay. Magnetic beads were used for co-immunoprecipitation assays, and 50 μL of the bead suspension was placed in each sample. The beads were washed twice with 1×PBS-0.1% Tween-20 by vortexing for 10 s. The beads were resuspended in 1×PBS-0.1% Tween-20 with either 1 μg of anti-p53 DO1 antibody or 1 μg of normal mouse IgG at a final volume of 100 μL. The tubes were incubated at room temperature for 10 min with continuous mixing. The beads were washed three times with 1×PBS-0.1% Tween-20, and 1 μg of purified mtp53 R273H and 100 ng of Cy5p53Tet peptide were incubated with the immobilized antibody at 4° C. for 150 min with constant rotation. Beads were pelleted and then washed with 1 mL 1×PBS-0.1% Tween-20 four times at room temperature. Bound proteins were eluted by incubating in 2×SDS Laemmli sample buffer containing 0.2 M DTT, heated at 95° C. for 10 min, and loaded on 15 or 10% polyacrylamide gel.

MDA-MB-468.shp53 cells = assay: Cy5p53Tet uptake in MDA-MB-468 shp53 cells with or without mtp53 depletion (live cell imaging); format: cell-based, Human; settings: 500 nM
[1] = test system: MDA-MB-468 cells compared to MCF7 cells; settings: 2 h
Protocol: FlowJo software was used to analyze the cytometric data.
The cellular uptake of Cy5p53Tet in these two cell lines was also measured using flow cytometry.
In Vitro Cy5p53Tet Cellular Uptake by Flow Cytometry. Fluorescence-activated cell-sorting (FACS) was used to determine the cellular uptake of Cy5p53Tet. MCF7 and MDA-MB-468 cells were seeded in six-well plates at a density of 5×10^5 cells/well and incubated at 37° C. overnight. On the following day, media were replaced with fresh media containing vehicle control or 100 or 500 nM Cy5p53Tet and further incubated at 37° C. for 2 h. Cells were washed two times with PBS and trypsinized at 37° C. for 5 min. Trypsin was neutralized by adding media, and the cell suspension was spun down. Cell pellets were washed with PBS and resuspended in PBS. FACS was performed on a FACScan (BD Biosciences), processing 2×10^4 events for each sample.

[2] = test system: MCF7 and MDA-MB-468 xenografts; assay: NIRF imaging of Cy5p53Tet in mice bearing bilateral MCF7/MDA-MB-468 xenografts (in vivo and ex vivo epifluorescence); settings: in vivo, after intravenous administration, 10 nmol
Protocol: At 40, 80, and 180 min after injection, mice were sacrificed, and the xenografts were resected and imaged ex vivo (FIG. 2C).
NIRF Imaging of Cy5p53Tet in Mice Bearing Bilateral MCF7/MDA-MB-468 Xenografts. Female athymic nude mice (6-10 weeks old, 01B74-Athymic NCr-nu/nu;) were obtained from Charles River Laboratories. Animals were supplemented with 17β-estradiol with a dose of 0.72 mg/pellet (60-day release) into the neck 7 days before MCF7 cells were subcutaneous implanted. 5×10^6 cells/mouse MCF7 cells were suspended in 100 μL of 1:1 media/matrigel basement membrane matrix (Corning) and injected subcutaneously on the left flank of each mouse (n≥3/group). After 4 weeks, 5×10^6 cells/mouse MDA-MB-468 cells were subcutaneously implanted in the right flank of the mouse in 100 μL of 1:1 media/matrigel basement membrane matrix. Imaging experiments were performed when the tumors reached a volume of ˜50-250 mm^3 (after approximately 3 weeks). Cy5p53Tet (10 nmol) was injected into the tail vein of each mouse. Prior to in vivo imaging, the mice were anesthetized with 1.5-2.0% isoflurane (Baxter Healthcare). Images were collected using an IVIS Spectrum (Perkin Elmer) 12 min, 30 min, and 3 h following the administration of Cy5p53Tet. […] Fluorescence imaging was carried out with excitation and emission wavelengths of 640 and 680 nm, respectively. […]

WHIM6 and WHIM25 tumors = assay: SDS-PAGE Cy5 signal of protein extracts from WHIM6 and WHIM25 PDX tumors; format: in vivo, NSG mice; settings: SDS-PAGE of tumor extracts
Protocol: 25 μg of proteins were run on 12% polyacrylamide gel and the Cy5p53Tet peptide accumulated in tumors was scanned at Cy5 channel and quantified. The intensity of Cy5p53Tet peptide was analyzed by ImageJ. p53 and MDM2 protein levels from the WHIM6 and WHIM25 tumors post-injection with Cy5p53Tet peptide at 1 hr, 2 hr and 3 hr were determined by Western blot analysis. 25 ug of proteins were load on 12% SDS-PAGE gel.
First, WHIM6/WHIM25 bilateral PDX tumor-bearing NSG mice were tail vein injected with 10 nmol of Cy5p53Tet peptide to study its delivery efficacy (FIG. 5A). Then, the WHIM6 and WHIM25 tumors were removed at 1, 2, and 3 hr post-injection. Uptake of the Cy5p53Tet peptide in WHIM6 and WHIM25 tumors was assessed on an in vivo epifluorecent imaging system (IVIS). […] The Cy5p53Tet peptide signal was investigated in PDX tumor tissue by extracting proteins from the WHIM6 and WHIM25 tumors post-injection with the Cy5p53Tet peptide at 1 hr, 2 hr, and 3 hr, and the Cy5p53Tet peptide effects were characterized in PDX models (FIG. 5B). Samples were run on 12% polyacrylamide gel and the Cy5p53Tet peptide accumulated in tumors was scanned at Cy5 channel and quantified. […] In addition, p53 and MDM2 protein levels were checked upon Cy5p53Tet peptide treatment in PDX tumors.

mtp53 = target: T1, mtp53 (Homo sapiens, UniProt P04637, R273H); assay: Glutaraldehyde cross-link assay in MDA-MB-468 cell lysates; format: binding; settings: in the presence of glutaraldehyde; cells treated 1.5 μM, 4 h; Cy5 channel
T1 construct: endogenous in cells; host or cells: MDA-MB-468
Text: FIG. 4D illustrates Cy5p53Tet treated with glutaraldehyde without MDA-MB-468 cell lysate.
Wtp53 can form a tetramer, and its oligomerization regulates its transcriptional activity. Tetramerization is important for both wtp53 and mtp53, as both are preferentially degraded by MDM2 when present as dimers rather than tetramers. The oligomerization states of mtp53 were examined and the interactions were investigated by Cy5p53Tet and mtp53 using glutaraldehyde (GA) cross-linking assays (FIG. 4A to FIG. 4D). MDA-MB-468 cells were treated with vehicle or 1.5 μM of Cy5p53Tet for 4 h. Whole-cell lysates were cross-linked with glutaraldehyde concentrations of 0, 0.0025, or 0.005%, and the samples were analyzed by Western blot to detect p53 oligomerization forms (FIG. 4A). In cells without glutaraldehyde, monomers of mtp53 were detected; at 0.0025% glutaraldehyde, monomers, dimers, and tetramers were visible; and at 0.005% glutaraldehyde, the predominant form was tetramers. The presence of Cy5p53Tet-containing mtp53 polypeptides was evaluated using the Cy5 channel (FIG. 4B). Cy5p53Tet was detected at a low molecular weight: <12 kDa in the absence of glutaraldehyde (FIG. 4B, lane 4). […] As a control, the glutaraldehyde cross-linking of Cy5p53Tet was examined without mtp53 and found no such signal (FIG. 4D). […]

H-CysCy5-RKKRRQRRGEYFTLQIRGRERFEMFRELNEALELK-OH (N-terminal Cy5; Synthetic peptide based on p53 protein) [Cy5p53Tet]
pull-down of Cy5p53Tet with mtp53 R273H (mtp53 R273H): significantly pulled down
reduction of the Cy5p53Tet signal upon mtp53 depletion (relative ROI intensity) (MDA-MB-468.shp53 cells; 30 min): 61%
reduction of the Cy5p53Tet signal upon mtp53 depletion (relative ROI intensity) (MDA-MB-468.shp53 cells; 2 h): 63%
reduction of the Cy5p53Tet signal upon mtp53 depletion (relative ROI intensity) (MDA-MB-468.shp53 cells; 4 h): 67%
difference of Cy5p53Tet signal between knockdown and control cells (MDA-MB-468.shp53 cells; 24 h): no statistically significant difference
geometric MFI, mtp53-expressing MDA-MB-468 cells vs MCF7 cells ([1]; 100 nM): 1.58 fold
geometric MFI, mtp53-expressing MDA-MB-468 cells vs MCF7 cells ([1]; 500 nM): 1.65 fold
NIRF signal in MCF7 tumors [2]: no signal
NIRF signal in MDA-MB-468 tumors [2]: clearly observed
retention of Cy5p53Tet in mtp53 R273H WHIM25 versus wtp53 WHIM6 (WHIM6 and WHIM25 tumors): longer
molecular weight at which Cy5p53Tet was observed (mtp53): > 225 kDa
